Values of other authors, collected in patent publication US20250381170A1, “Low Concentration Delivery of an Ergoline Derivative for Treatment of a Headache” (Relevale, Inc., priority 2021, published 2025).

How the values were obtained:
[1] = target: T1, serotonin 5-HT1A receptors (Homo sapiens, UniProt P08908)
T1 sequence (P08908 1-422): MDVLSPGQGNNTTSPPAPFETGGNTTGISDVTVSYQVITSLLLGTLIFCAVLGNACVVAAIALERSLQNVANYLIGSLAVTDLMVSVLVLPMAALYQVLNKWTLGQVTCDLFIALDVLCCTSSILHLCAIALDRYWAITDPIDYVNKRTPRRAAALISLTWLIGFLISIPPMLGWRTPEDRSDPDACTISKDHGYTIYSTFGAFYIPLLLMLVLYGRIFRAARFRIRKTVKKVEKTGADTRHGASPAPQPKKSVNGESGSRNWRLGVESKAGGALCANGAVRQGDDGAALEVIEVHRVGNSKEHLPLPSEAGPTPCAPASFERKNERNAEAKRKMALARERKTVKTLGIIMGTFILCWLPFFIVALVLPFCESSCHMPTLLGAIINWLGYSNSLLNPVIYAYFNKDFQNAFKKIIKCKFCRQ

dopamine D2L receptors = dopamine D2L receptors (Homo sapiens, UniProt P14416)
Sequence of dopamine D2L receptors (P14416 whole entry): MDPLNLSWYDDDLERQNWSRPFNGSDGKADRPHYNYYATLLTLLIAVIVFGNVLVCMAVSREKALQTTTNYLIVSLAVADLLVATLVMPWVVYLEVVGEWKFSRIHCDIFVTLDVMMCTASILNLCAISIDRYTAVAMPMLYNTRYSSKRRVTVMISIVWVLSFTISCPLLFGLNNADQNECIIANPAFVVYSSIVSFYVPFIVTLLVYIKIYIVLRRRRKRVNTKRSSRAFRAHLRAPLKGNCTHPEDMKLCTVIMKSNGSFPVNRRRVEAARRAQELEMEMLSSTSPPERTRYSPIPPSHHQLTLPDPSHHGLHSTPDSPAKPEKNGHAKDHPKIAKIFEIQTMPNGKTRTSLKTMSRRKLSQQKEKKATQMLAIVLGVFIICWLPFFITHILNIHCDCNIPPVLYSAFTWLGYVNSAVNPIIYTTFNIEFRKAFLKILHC

5-HT1Dβ receptors = 5-HT1Dβ receptors (Homo sapiens, UniProt P28222)
Sequence of 5-HT1Dβ receptors (P28222 whole entry): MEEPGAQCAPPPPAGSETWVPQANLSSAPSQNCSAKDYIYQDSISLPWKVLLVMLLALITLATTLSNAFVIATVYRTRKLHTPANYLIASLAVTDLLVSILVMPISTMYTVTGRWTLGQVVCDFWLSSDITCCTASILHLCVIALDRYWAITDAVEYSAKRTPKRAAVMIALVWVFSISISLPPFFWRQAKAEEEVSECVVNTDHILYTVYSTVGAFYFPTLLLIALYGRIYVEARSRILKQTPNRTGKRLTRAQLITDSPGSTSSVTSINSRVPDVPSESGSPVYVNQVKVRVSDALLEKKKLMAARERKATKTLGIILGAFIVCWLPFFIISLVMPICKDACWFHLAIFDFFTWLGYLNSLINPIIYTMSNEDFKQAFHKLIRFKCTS

[2] = target: T2, serotonin 5-HT2C receptors (Homo sapiens, UniProt P28335)
T2 sequence (P28335 33-458): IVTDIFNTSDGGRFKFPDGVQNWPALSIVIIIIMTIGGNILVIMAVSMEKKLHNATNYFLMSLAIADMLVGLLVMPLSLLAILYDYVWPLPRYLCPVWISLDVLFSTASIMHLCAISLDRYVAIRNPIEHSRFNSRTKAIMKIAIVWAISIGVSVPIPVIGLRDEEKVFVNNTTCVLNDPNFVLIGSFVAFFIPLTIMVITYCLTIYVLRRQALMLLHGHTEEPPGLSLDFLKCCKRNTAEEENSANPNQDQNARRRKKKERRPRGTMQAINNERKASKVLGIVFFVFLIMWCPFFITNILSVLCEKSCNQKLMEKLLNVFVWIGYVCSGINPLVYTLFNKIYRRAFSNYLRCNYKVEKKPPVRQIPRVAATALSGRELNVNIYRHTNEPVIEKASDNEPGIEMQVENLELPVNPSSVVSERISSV

[3] = test system: noradrenaline α, receptors
[4] = target: T3, noradrenaline α2A receptors (Homo sapiens, UniProt P08913)
T3 sequence (P08913 1-465): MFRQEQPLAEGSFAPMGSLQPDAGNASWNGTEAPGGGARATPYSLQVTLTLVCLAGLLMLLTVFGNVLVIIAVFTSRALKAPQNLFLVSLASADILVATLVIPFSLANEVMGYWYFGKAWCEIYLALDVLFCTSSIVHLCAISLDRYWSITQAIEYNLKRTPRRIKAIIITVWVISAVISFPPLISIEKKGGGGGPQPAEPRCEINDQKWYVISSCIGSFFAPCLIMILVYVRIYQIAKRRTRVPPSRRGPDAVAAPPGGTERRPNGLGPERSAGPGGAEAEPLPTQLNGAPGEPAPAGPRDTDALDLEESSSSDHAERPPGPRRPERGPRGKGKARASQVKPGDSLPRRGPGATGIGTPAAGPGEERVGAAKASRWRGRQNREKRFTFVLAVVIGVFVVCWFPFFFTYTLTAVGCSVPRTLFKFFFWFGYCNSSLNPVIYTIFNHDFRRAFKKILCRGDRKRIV

dopamine D3 receptors = dopamine D3 receptors (Homo sapiens, UniProt P35462)
Sequence of dopamine D3 receptors (P35462 whole entry): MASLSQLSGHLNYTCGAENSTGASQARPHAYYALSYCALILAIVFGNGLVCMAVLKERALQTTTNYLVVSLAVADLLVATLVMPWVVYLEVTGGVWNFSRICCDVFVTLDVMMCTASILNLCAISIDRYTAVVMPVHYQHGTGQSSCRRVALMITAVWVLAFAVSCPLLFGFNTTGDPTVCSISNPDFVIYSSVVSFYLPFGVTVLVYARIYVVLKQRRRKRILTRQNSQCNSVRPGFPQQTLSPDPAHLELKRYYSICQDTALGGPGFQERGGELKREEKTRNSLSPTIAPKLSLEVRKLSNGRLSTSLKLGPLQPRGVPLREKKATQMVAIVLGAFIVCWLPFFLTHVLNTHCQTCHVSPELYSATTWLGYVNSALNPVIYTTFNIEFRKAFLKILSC

[5] = oral dosage forms
5-HT1Dα receptors = 5-HT1Dα receptors (Homo sapiens, UniProt P28221)
Sequence of 5-HT1Dα receptors (P28221 whole entry): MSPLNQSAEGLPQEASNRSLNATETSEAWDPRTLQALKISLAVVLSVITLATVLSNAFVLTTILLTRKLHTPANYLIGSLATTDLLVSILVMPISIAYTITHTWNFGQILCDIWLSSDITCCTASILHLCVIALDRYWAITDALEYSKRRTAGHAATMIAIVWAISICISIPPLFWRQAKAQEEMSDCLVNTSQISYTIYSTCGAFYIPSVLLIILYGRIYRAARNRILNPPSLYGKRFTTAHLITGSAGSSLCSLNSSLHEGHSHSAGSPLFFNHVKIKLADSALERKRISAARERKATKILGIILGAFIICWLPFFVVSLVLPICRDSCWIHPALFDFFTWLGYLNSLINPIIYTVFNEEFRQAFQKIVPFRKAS

[6] = within 24 hours after treatment; sumatriptan-treated patients

Compound	binding affinity [1]	binding affinity (dopamine D2L receptors)	binding affinity (5-HT1Dβ receptors)	binding affinity [2]	binding affinity [3]	binding affinity [4]	binding affinity (dopamine D3 receptors)	absorption through the gut [5]	binding affinity (5-HT1Dα receptors)	patients with headache reoccurrence [6] [%]
CN1C[C@H](C(=O)N[C@]2(C)O[C@@]3(O)[C@@H]4CCCN4C(=O)[C@H](Cc4ccccc4)N3C2=O)C[C@@H]2c3cccc4[nH]cc(c34)C[C@H]21 [DHE, Dihydroergotamine]	high affinity	high affinity	high affinity	high affinity	high affinity	high affinity	high affinity	poorly absorbed	high affinity	–
CNS(=O)(=O)Cc1ccc2[nH]cc(CCN(C)C)c2c1 [sumatriptan]	–	–	–	–	–	–	–	–	–	45
